Structures are written as SMILES.

In this experiment the test system is Endogenous Huntingtin Protein. Put plainly: Endogenous Huntingtin Protein Assay (Meso Scale Discovery ELISA-based electrochemiluminescence). The experiment is classed as cell-based. The conditions noted are these: MSD electrochemiluminescence, Table 1. The procedure:
Compounds of Formula (I) were tested using the Meso Scale Discovery (MSD) Assay provided in International Application No. PCT/US2016/066042, filed on Dec. 11, 2016 and claiming priority to United States Provisional Application U.S. 62/265,652 filed on Dec. 10, 2015, the entire contents of which are incorporated herein by reference.
The Endogenous Huntingtin Protein assay used in Example 1 was developed using the ELISA-based MSD electrochemiluminescence assay platform.
Endogenous Huntingtin Protein Assay
Meso Scale Discovery (MSD) 96-well or 384-well plates were coated overnight at 4° C. with MW1 (expanded polyglutamine) or MAB2166 monoclonal antibody (for capture) at a concentration of 1 μg/mL in PBS (30 μL per well). Plates were then washed three times with 300 μL wash buffer (0.05% Tween-20 in PBS) and blocked (100 μL blocking buffer; 5% BSA in PBS) for 4-5 hours at room temperature with rotational shaking and then washed three times with wash buffer.
Samples (25 μL) were transferred to the antibody-coated MSD plate and incubated overnight at 4° C. After removal of the lysates, the plate was washed three times with wash buffer, and 25 μL of #5656S (Cell signaling; rabbit monoclonal) secondary antibody (diluted to 0.25 μg/mL in 0.05% Tween-20 in blocking buffer) was added to each well and incubated with shaking for 1 Hour at room temperature. Following incubation with the secondary antibody, the wells were rinsed with wash buffer after which 25 μL of goat anti-rabbit SULFO TAG secondary detection antibody (required aspect of the MSD system) (diluted to 0.25 μg/mL in 0.05% Tween-20 in blocking buffer) was added to each well and incubated with shaking for 1 hour at room temperature. After rinsing three times with wash buffer, 150 μL of read buffer T with surfactant (MSD) were added to each empty well, and the plate was imaged on a SI 6000 imager (MSD) according to manufacturers' instructions provided for 96- or 384-well plates.
(In general: In an ELISA, binding on a coated surface is turned into a signal by an enzyme label.)
Broadly, the IC50 is the point on the concentration scale where inhibition reaches its midpoint. Higher therefore signals weaker potency. For `Cc1cc(-c2ccc3nc(C4=CC(C)(C)NC(C)(C)C4)ccc3c2)cc2cn(C)nc12` [Compound 13, 6-(2,7-dimethyl-2H-indazol-5-yl)-2-(2,2,6,6-tetramethyl-1,2,3,6-tetrahydropyridin-4-yl)quinoline], the IC50 fell in the range of 1000 to 3000 nM. Then `CCN1CCC(c2cc3c(F)cc(-c4cc(C#N)c5nc(C)cn5n4)cc3nn2)CC1` [Compound 114, 6-[3-(1-ethylpiperidin-4-yl)-5-fluorocinnolin-7-yl]-2-methylimidazo[1,2-b]pyridazine-8-carbonitrile], with not above 100 nM; and `Cc1cc2cc(-c3cc(F)c4cc(C5CCNCC5)nnc4c3)[nH]c2c(C)n1` [Compound 191, 7-(5,7-dimethyl-1H-pyrrolo[2,3-c]pyridin-2-yl)-5-fluoro-3-(piperidin-4-yl)cinnoline], with 100 to 500 nM; and `Cc1cn2nc(-c3cc(F)c4cc(C5CCN(CCO)CC5)nnc4c3)cc(CO)c2n1` [Compound 181, 2-(4-{5-fluoro-7-[8-(hydroxymethyl)-2-methylimidazo[1,2-b]pyridazin-6-yl]cinnolin-3-yl}piperidin-1-yl)ethan-1-ol], with not above 100 nM. Then `Cc1cn2nc(-c3cc(F)c4cc(C5CCN(CCF)CC5)nnc4c3)cc(C)c2n1` [Compound 83, 7-(2,8-dimethylimidazo[1,2-b]pyridazin-6-yl)-5-fluoro-3-[1-(2-fluoroethyl)piperidin-4-yl]cinnoline], with not above 100 nM; and `Cc1cn2nc(-c3cc(F)c4cc(C5CCN(C)CC5)nnc4c3)cc(C)c2n1` [Compound 79, 7-(2,8-dimethylimidazo[1,2-b]pyridazin-6-yl)-5-fluoro-3-(1-methylpiperidin-4-yl)cinnoline], with not above 100 nM. In the case of `Cc1nc2c(C)cc(-c3cc(F)c4nc(C5CCNCC5)nnc4c3)cc2o1` [Compound 62, 7-(2,4-dimethyl-1,3-benzoxazol-6-yl)-5-fluoro-3-(piperidin-4-yl)-1,2,4-benzotriazine] it was not above 100 nM; in that of `Cc1cc2oc(-c3cc(F)c4cc(C5CCN(CCO)CC5)nnc4c3)nc2c(C)n1` [Compound 213, 2-{4-[7-(4,6-dimethyl[1,3]oxazolo[4,5-c]pyridin-2-yl)-5-fluorocinnolin-3-yl]piperidin-1-yl}ethan-1-ol], 100 to 500 nM; in that of `Cc1cn2cc(-c3cc(F)c4cc(C5CCNCC5)nnc4c3)cnc2n1` [Compound 91, 5-fluoro-7-(2-methylimidazo[1,2-a]pyrimidin-6-yl)-3-(piperidin-4-yl)cinnoline], 1000 to 3000 nM. Regarding `CN1CCC(c2ccc3cc(-c4ccc5nn(C)cc5c4)ccc3n2)CC1` [Compound 6, 6-(2-methyl-2H-indazo1-5-yl)-2-(1-methylpiperidin-4-yl)quinoline], the IC50 fell in the range of 500 to 1000 nM. Regarding `Cc1cc(-c2cc(F)c3cc(C4CCNCC4)nnc3c2)cc2cn(C)nc12` [Compound 73, 7-(2,7-dimethyl-2H-indazol-5-yl)-5-fluoro-3-(piperidin-4-yl)cinnoline], the IC50 is not above 100 nM. Then `Cc1cn2nc(-c3cc(F)c4cc(N5CCC6(CC5)CNC6)nnc4c3)cc(C)c2n1` [Compound 219, 3-(2,7-diazaspiro[3.5]nonan-7-yl)-7-(2,8-dimethylimidazo[1,2-b]pyridazin-6-yl)-5-fluorocinnoline], with not above 100 nM. In the case of `CCN1CCCC(c2cc3c(F)cc(-c4cc(C)c5nc(C)cn5n4)cc3nn2)CC1` (stereo not drawn) [Compound 189, 7-(2,8-dimethylimidazo[1,2-b]pyridazin-6-yl)-3-(1-ethylazepan-4-yl)-5-fluorocinnoline] it was not above 100 nM; in that of `Cc1cn2nc(-c3cc(F)c4cc(C5=CCNCC5)nnc4c3)cc(C)c2n1` [Compound 225, 7-(2,8-dimethylimidazo[1,2-b]pyridazin-6-yl)-5-fluoro-3-(1,2,3,6-tetrahydropyridin-4-yl)cinnoline], not above 100 nM; in that of `Cc1cc(C2CCNCC2)nc2ccc(-c3ccc4nn(C)cc4c3)cc12` [Compound 5, 4-methyl-6-(2-methyl-2H-indazol-5-yl)-2-(piperidin-4-yl)quinoline], 1000 to 3000 nM. Compound `CCCN1CCC(c2cc3c(F)cc(-c4cc(C)c5nc(C)cn5n4)cc3nn2)CC1` [Compound 77, 7-(2,8-dimethylimidazo[1,2-b]pyridazin-6-yl)-5-fluoro-3-(l-propylpiperidin-4-yl)cinnoline] registered an IC50 not above 100 nM.

`Cc1cc(-c2ccc3nc(C4CCNCC4)ncc3c2F)cc2cn(C)nc12` [Compound 38, 6-(2,7-dimethyl-2H-indazol-5-yl)-5-fluoro-2-(piperidin-4-yl)quinazoline] returned an IC50 of 1000 to 3000 nM. In turn, `Cc1cc(-c2ccc3nc(N(C)C4CC(C)(C)NC(C)(C)C4)ccc3c2)cc2cn(C)nc12` [Compound 11, 6-(2,7-dimethyl-2H-indazol-5-yl)-N-methyl-N-(2,2,6,6-tetramethylpiperidin-4-yl)quinolin-2-amine] registered an IC50 of 1000 to 3000 nM. In the case of `Cc1cn2nc(-c3cc(F)c4cc(C5CCNCC5)nnc4c3)cc(CC#N)c2n1` [Compound 187, {6-[5-fluoro-3-(piperidin-4-yl)cinnolin-7-yl]-2-methylimidazo[1,2-b]pyridazin-8-yl}acetonitrile] it was not above 100 nM; in that of `Cn1cc2cc(-c3cc(F)c4nc(C5CCNCC5)nnc4c3)cc(F)c2n1` [Compound 32, 5-fluoro-7-(7-fluoro-2-methyl-2H-indazol-5-yl)-3-(piperidin-4-yl)-1,2,4-benzotriazine], not above 100 nM. In the case of `Cc1cc(-c2cc(F)c3nc(C4CCNCC4)nnc3c2)cc2cn(C)nc12` [Compound 33, 7-(2,7-dimethyl-2H-indazol-5-yl)-5-fluoro-3-(piperidin-4-yl)-1,2,4-benzotriazine] it was not above 100 nM; in that of `Cc1cn2cc(-c3cc(F)c4cc(C5CCNCC5)nnc4c3)cc(C#N)c2n1` [Compound 93, 6-[5-fluoro-3-(piperidin-4-yl)cinnolin-7-yl]-2-methylimidazo[1,2-a]pyridine-8-carbonitrile], not above 100 nM; in that of `Cc1cn2nc(-c3nnc4cc(C5CCNCC5)cc(F)c4n3)cc(C)c2n1` [Compound 57, 3-(2,8-dimethylimidazo[1,2-b]pyridazin-6-yl)-5-fluoro-7-(piperidin-4-yl)-1,2,4-benzotriazine], not above 100 nM.

In the case of `Cc1cc(-c2cc(F)c3cc(C4CCNCC4)nnc3c2)nc2cn(C)nc12` [Compound 162, 7-(2,7-dimethyl-2H-pyrazolo[4,3-b]pyridin-5-yl)-5-fluoro-3-(piperidin-4-yl)cinnoline], the IC50 was not above 100 nM.

Compound `Cc1cc(-c2ccc3nc(C4CCNCC4)ncc3c2)cc2cn(C)nc12` [Compound 23, 6-(2,7-dimethyl-2H-indazol-5-yl)-2-(piperidin-4-yl)quinazoline] had an IC50 of 100 to 500 nM.

Take `Cc1nc2c(C)cc(-c3cc(F)c4cc(C5C[C@@H](C)N(C)[C@@H](C)C5)nnc4c3)nc2o1` (stereo partly drawn) [Compound 226, 5-(5-fluoro-3-((2S,4R,6R)-1,2,6-trimethylpiperidin-4-yl)cinnolin-7-yl)-2,7-dimethyloxazolo[5,4-b]pyridine]: the IC50 is not above 100 nM. Take `CCN1CCC(c2cc3c(F)cc(-c4cn5cc(C)nc(C)c5n4)cc3nn2)CC1` [Compound 119, 7-(6,8-dimethylimidazo[1,2-a]pyrazin-2-yl)-3-(1-ethylpiperidin-4-yl)-5-fluorocinnoline]: the IC50 lay in the range of 500 to 1000 nM. Then `CCN1CCC(c2cnc3cc(-c4cc(C)c5nc(C)cn5n4)cc(F)c3n2)CC1` [Compound 110, 6-(2,8-dimethylimidazo[1,2-b]pyridazin-6-yl)-2-(1-ethylpiperidin-4-yl)-8-fluoroquinoxaline], with not above 100 nM; and `Cc1cn2nc(-c3cc(F)c4cc(C5CCN(CCN(C)C)CC5)nnc4c3)cc(C)c2n1` [Compound 127, 2-{4-[7-(2,8-dimethylimidazo[1,2-b]pyridazin-6-yl)-5-fluorocinnolin-3-yl]piperidin-1-yl}-N,N-dimethylethan-1-amine], with not above 100 nM. The compound `CCN1CC=C(c2cc(F)c3cc(-c4cc(F)c5nn(C)cc5c4)nnc3c2)CC1` [Compound 153, 7-(1-ethyl-1,2,3,6-tetrahydropyridin-4-yl)-5-fluoro-3-(7-fluoro-2-methyl-2H-indazol-5-yl)cinnoline] came in with an IC50 not above 100 nM. Then `Cc1cn2nc(-c3cc(F)c4cc(C5CCNC5)nnc4c3)cc(C)c2n1` (stereo not drawn) [Compound 143, 7-(2,8-dimethylimidazo[1,2-b]pyridazin-6-yl)-5-fluoro-3-(pyrrolidin-3-yl)cinnoline], with not above 100 nM; and `Cn1cc2cc(-c3cc4ccc(C5=CCNCC5)cc4nn3)ccc2n1` [Compound 4, 3-(2-methyl-2H-indazol-5-yl)-7-(1,2,3,6-tetrahydropyridin-4-yl)cinnoline], with 500 to 1000 nM; and `CCc1cc(-c2cc(F)c3cc(C4CCN(CC)CC4)nnc3c2)nn2cc(C)nc12` [Compound 121, 7-(8-ethyl-2-methylimidazo[1,2-b]pyridazin-6-yl)-3-(1-ethylpiperidin-4-yl)-5-fluorocinnoline], with not above 100 nM.

The record behind these values is US12384789B2, “Compounds for treating Huntington's disease” (PTC Therapeutics, Inc., priority 2017, dated 2025).
